Activity calls are given as the source filed them. The rule behind the calls is not given here.
Test system: MAGI cells cytotoxicity, % cell control, 2% serum
Assay: host cell viability for CXCR4-tropic HIV-1 MAGI assay – MAGI cells, 2% serum, TC50, cytotoxicity control for HIV-1 antiviral lead project, dose response (AID 504393)

| SMILES | TC50 |
| --- | --- |
| CS(=O)(=O)C1=NSC2=NC(=O)/C(=C\c3cccn3-c3ccc(Cl)c(Cl)c3)C(=N)N21 | 56.7 µM |
| COc1ccccc1Cn1c(O)cc2nn(-c3nc4ccccc4s3)c(=O)c-2c1C | 45.7 µM |
| CCc1ccc(-c2ccc(/C=C3\SC(=S)N(CCCC(=O)O)C3=O)o2)cc1 | > 100 µM (inactive) |
| CS(=O)(=O)C1=NSC2=NC(=O)/C(=C\c3cccn3-c3cccc(C(F)(F)F)c3)C(=N)N21 | 79.5 µM |
| CCc1ccc(-n2cccc2/C=C2/C(=N)N3C(=NC2=O)SN=C3S(C)(=O)=O)cc1 | 49.7 µM |
| CCOC(=O)C1=C(C)N=c2s/c(=C\c3ccc(OCC(=O)O)cc3)c(=O)n2C1c1ccc(OC)c(OCC)c1 (centres undefined) | > 100 µM (inactive) |
| O=C(O)CCCN1C(=O)/C(=C/c2ccc(-c3ccc(Cl)c(Cl)c3)o2)SC1=S | 11.7 µM |
| COc1ccc(Cn2c(O)cc3nn(-c4nc5ccccc5s4)c(=O)c-3c2C)cc1 | 56.3 µM |
| COc1ccc(CCn2c(O)cc3nn(-c4nc5ccccc5s4)c(=O)c-3c2C)cc1 | > 100 µM (inactive) |
| Cc1c2c(=O)n(-c3nc4ccccc4s3)nc-2cc(O)n1CCC(C)C | 65.1 µM |
| Cc1c2c(=O)n(-c3nc4ccccc4s3)nc-2cc(O)n1Cc1ccc(F)cc1 | 70.4 µM |
| O=C(O)c1ccc(C[n+]2c(-c3ccccc3)csc2Nc2ccccc2)cc1 | 80.6 µM |
| Cc1ccc(-c2ccc(/C=C3\SC(=S)N(CCCC(=O)O)C3=O)o2)cc1 | > 100 µM (inactive) |
| COc1ccc(-c2ccc(/C=C3\SC(=S)N(CCCC(=O)O)C3=O)o2)cc1 | > 100 µM (inactive) |
| CCOC(=O)C1=C(C)N=c2sc(=Cc3ccc(OCC(=O)O)cc3)c(=O)n2C1c1ccccc1OC (centres undefined) | > 100 µM (inactive) |
| O=C(O)CCCN1C(=O)/C(=C/c2cc3ccccc3o2)SC1=S | 83.6 µM |
| O=C(O)CCCN1C(=O)/C(=C/c2ccc(-c3cccc(C(F)(F)F)c3)o2)SC1=S | > 100 µM (inactive) |
| CS(=O)(=O)C1=NSC2=NC(=O)/C(=C\c3cccn3-c3ccc(F)cc3)C(=N)N21 | > 100 µM (inactive) |
| CCOc1ccc(-n2cccc2/C=C2/C(=N)N3C(=NC2=O)SN=C3S(C)(=O)=O)cc1 | 42.6 µM |
| Cc1c2c(=O)n(-c3nc4ccccc4s3)nc-2cc(O)n1Cc1ccncc1 | 85.9 µM |

| SMILES | TC50 |
| --- | --- |
| COc1ccc(-n2cccc2/C=C2/C(=N)N3C(=NC2=O)SN=C3S(C)(=O)=O)cc1Cl | 42.4 µM |
| Nc1sc2ccccc2[n+]1Cc1ccc(C(=O)O)cc1 | > 100 µM (inactive) |
| Cc1ccc(-n2cccc2/C=C2/C(=N)N3C(=NC2=O)SN=C3S(C)(=O)=O)cc1C | 48.9 µM |
| COc1cccc(-n2cccc2/C=C2/C(=N)N3C(=NC2=O)SN=C3S(C)(=O)=O)c1 | 57.6 µM |
| CS(=O)(=O)C1=NSC2=NC(=O)/C(=C\c3cccn3-c3cc(Cl)cc(Cl)c3)C(=N)N21 | 36.5 µM |
| O=C(O)c1ccc([C@@H]2Nc3ccc(S(=O)(=O)Nc4cccc5ccccc45)cc3[C@@H]3C=CC[C@@H]32)cc1 | 54.8 µM |
| Cc1c2c(=O)n(-c3nc4ccccc4s3)nc-2cc(O)n1CCc1ccc(O)cc1 | 37.6 µM |
| O=C(O)CCCN1C(=O)/C(=C\c2ccc(-c3cccc(Cl)c3)o2)SC1=S | 40 µM |
| Cc1c2c(=O)n(-c3nc4ccccc4s3)nc-2cc(O)n1Cc1cccnc1 | 99.2 µM |
| CC1=C(C(=O)OC(C)C)C(c2ccc(Cl)cc2)n2c(s/c(=C\c3ccc(OCC(=O)O)cc3)c2=O)=N1 (centres undefined) | > 100 µM (inactive) |
| CCOC(=O)C1=C(C)N=c2sc(=Cc3ccc(OCC(=O)O)cc3)c(=O)n2C1c1cc(OC)c(OC)c(OC)c1 (centres undefined) | > 100 µM (inactive) |
| COc1cccc(C2C(C(=O)Nc3ccccc3)=C(C)N=c3sc(=Cc4ccc(OCC(=O)O)cc4)c(=O)n32)c1 (centres undefined) | > 100 µM (inactive) |
| CCOC(=O)C1=C(c2ccccc2)N=c2s/c(=C\c3ccc(OCC(=O)O)cc3)c(=O)n2C1c1cccc(OC)c1 (centres undefined) | 57.5 µM |
| Cc1c2c(=O)n(-c3nc4ccccc4s3)nc-2cc(O)n1Cc1ccccc1Cl | 82 µM |
| O=C(O)CCC(C(=O)O)N1C(=O)/C(=C\c2ccco2)SC1=S (centres undefined) | > 100 µM (inactive) |
| CCOC(=O)C1=C(C)N=c2s/c(=C\c3ccc(OCC(=O)O)cc3)c(=O)n2C1c1ccc(Cl)cc1 (centres undefined) | > 100 µM (inactive) |
| CS(=O)(=O)C1=NSC2=NC(=O)/C(=C\c3cccn3-c3cccc(Cl)c3)C(=N)N21 | > 100 µM (inactive) |
| CCOC(=O)C1=C(C)N=c2sc(=Cc3ccc(OCC(=O)O)cc3)c(=O)n2C1c1ccc(OC)cc1OC (centres undefined) | > 100 µM (inactive) |
| CCOC(=O)C1=C(C)N=c2sc(=Cc3ccc(OCC(=O)O)cc3)c(=O)n2C1c1ccccc1 (centres undefined) | > 100 µM (inactive) |

From PubChem BioAssay AID504393 (Southern Research Specialized Biocontainment Screening …, 2011)
